In PubChem BioAssay AID1963978 (Molecular Pharmacology Branch, DTP, NCI, 2024):

Tested on: 616215-338-R-J1-PDC spheroids with HUVEC/MSC, viability
Assay: Anticancer human tumor 616215-338-R-J1-PDC patient-derived colon adenocarcinoma cell line growth inhibition [PI3K]
Conditions: for viability, T/C: stronger effect = lower value
Description: Combinatorial screen of targeted agents with the PI3K inhibitors inavolisib, alpelisib, duvelisib, and copanlisib in multi-cell type tumor spheroids
A high-throughput screen of multi-cell type tumor spheroids was designed to identify active combinations of targeted small molecules and PI3K pathway inhibitors. Complex spheroids include a stromal component modeled by human endothelial cells (HUVEC) and fibroblasts modeled by human mesenchymal stem cells (MSCs). The concentration ranges selected for each drug and investigational agent were based upon clinically achievable concentrations if the clinical Cmax of the agent was known.
Compounds. The drugs and investigational agents: inavolisib (NSC800729), alpelisib (NSC765974), duvelisib (NSC772469), copanlisib (NSC816437), ipatasertib (NSC767898), afuresertib (NSC778305), talazoparib (NSC767125), sapanisertib (NSC764658), selumetinib (NSC741078), tovorafenib (DAY101, NSC766906), vemurafenib (NSC761431), ravoxertinib (NSC781343), sotorasib (NSC818433), MRTX1133 (NSC 836407), abemaciclib (NSC 768073), palbociclib (NSC758247), venetoclax (NSC 766270), SY5609 (NSC837396), enzalutamide (NSC755605), and darolutamide (NSC825331), were obtained from the National Cancer Institute (NCI) Developmental Therapeutics Program Chemical Repository. The FDA-approved anticancer drug set is available from the NCI Developmental Therapeutics Program. […] The stock solutions were prepared in dimethyl sulfoxide (DMSO, Sigma-Aldrich, St. Louis, MO, cat. D2650) at 800-fold the tested concentration and stored at -70 degrees C prior to their use. All drugs and investigational agents were tested over a range starting from a high concentration at or near the clinical Cmax and decreasing in half-log increments. If the clinical Cmax for an agent had not been determined, the highest concentration tested was 10 microM.
Cell Culture. All cells were maintained in an incubator at 37 degrees C and 5% CO2 with 95% humidity. The PDC lines were cultured according to standard operating procedures established by the NCI PDMR (https://pdmr.cancer.gov/sops/default.htm). All PDCs were thawed and cultured in Matrigel-coated flasks prepared with a working solution of 1X Ham's F-12 nutrient mix, without supplementation (Invitrogen, Waltham, MA, cat. 11765054), 100 U/mL penicillin-streptomycin (Invitrogen, cat. 15140122), and 2.5% Matrigel (Corning Inc., Corning, NY, cat. 354248) for the first three passages. The 354836-022-R-J1-PDC, 475296-252-R-J1-PDC, and 997726-040-R-J2-PDC lines were cultured in 6A media, which includes advanced DMEM/F-12 (Thermo Fisher Scientific, cat. 12634028), 10 mM HEPES (Thermo Fisher Scientific, cat. 15630080), 1X GlutaMAX supplement (Thermo Fisher Scientific, cat. 35050061), 0.1 mg/mL primocin (InvivoGen, San Diego, CA, cat. ant-pm-2), 10% defined fetal bovine serum, heat inactivated (HyClone Laboratories Inc., Logan, UT, cat. SH30070.03HI), 50% L-WRN conditioned media (ATCC, cat. CRL-3276), 1.25 mM N-Acetyl-L-cysteine (Sigma-Aldrich, cat. A9165), 10 mM nicotinamide (Sigma-Aldrich, cat. N0636), 1X B-27 supplement (Thermo Fisher Scientific, cat. 17504044), 1X N-2 supplement (Thermo Fisher Scientific, cat. 17502048), and 10 microM Y-27632 dihydrochloride (Tocris Bioscience, Bristol, United Kingdom, cat. 1254). The 624824-186-R-J2-PDC line was cultured in 6C/Colon 1B media, which includes all 6A media components plus 50 ng/mL human EGF recombinant protein (Thermo Fisher Scientific, cat. PHG0311). […]

[1] = curve of first compound, second compound 0.0316 µM
[2] = curve of first compound, second compound 0.1 µM
[3] = curve of first compound, second compound 0.316 µM
[4] = curve of first compound, second compound 1 µM
[5] = second compound 0.0316 µM, first compound 0.0316 µM
[6] = second compound 0.0316 µM, first compound 0.1 µM
[7] = second compound 0.0316 µM, first compound 0.316 µM
[8] = second compound 0.0316 µM, first compound 1 µM
[9] = second compound 0.0316 µM, first compound 3.16 µM
[10] = second compound 0.0316 µM, first compound 10 µM
[11] = second compound 0.1 µM, first compound 0.0316 µM
[12] = second compound 0.1 µM, first compound 0.1 µM
[13] = second compound 0.1 µM, first compound 0.316 µM
[14] = second compound 0.1 µM, first compound 1 µM
[15] = second compound 0.1 µM, first compound 3.16 µM
[16] = second compound 0.1 µM, first compound 10 µM
[17] = second compound 0.316 µM, first compound 0.0316 µM
[18] = second compound 0.316 µM, first compound 0.1 µM
[19] = second compound 0.316 µM, first compound 0.316 µM
[20] = second compound 0.316 µM, first compound 1 µM
[21] = second compound 0.316 µM, first compound 3.16 µM
[22] = second compound 0.316 µM, first compound 10 µM
[23] = second compound 1 µM, first compound 0.0316 µM
[24] = second compound 1 µM, first compound 0.1 µM
[25] = second compound 1 µM, first compound 0.316 µM
[26] = second compound 1 µM, first compound 1 µM
[27] = second compound 1 µM, first compound 3.16 µM
[28] = second compound 1 µM, first compound 10 µM
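Note: spheroids exposed to agents for seven days before the viability read.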

## CC(Cn1ccc(-c2ccc(C#N)c(Cl)c2)n1)NC(=O)c1cc(C(C)O)[nH]n1 (stereo unspecified) + Cc1nc(NC(=O)N2CCCC2C(N)=O)sc1-c1ccnc(C(C)(C)C(F)(F)F)c1
[1]
  IC50: > 10 µM
[2]
  IC50: > 10 µM
[3]
  IC50: > 10 µM
[4]
  IC50: > 10 µM
Curve of first compound, second compound 3.16 µM
  IC50: > 10 µM
Curve of first compound, second compound 10 µM
  IC50: > 10 µM
[5]
  viability, T/C: 105%
[6]
  viability, T/C: 101%
[7]
  viability, T/C: 114%
[8]
  viability, T/C: 97.5%
[9]
  viability, T/C: 102%
[10]
  viability, T/C: 103%
[11]
  viability, T/C: 94.3%
[12]
  viability, T/C: 89.8%
[13]
  viability, T/C: 98.1%
[14]
  viability, T/C: 95.7%
[15]
  viability, T/C: 101%
[16]
  viability, T/C: 97.4%
[17]
  viability, T/C: 98.6%
[18]
  viability, T/C: 104%
[19]
  viability, T/C: 104%
[20]
  viability, T/C: 99.7%
[21]
  viability, T/C: 108%
[22]
  viability, T/C: 95.5%
[23]
  viability, T/C: 111%
[24]
  viability, T/C: 102%
[25]
  viability, T/C: 95.4%
[26]
  viability, T/C: 102%
[27]
  viability, T/C: 100%
[28]
  viability, T/C: 98.5%
Second compound 3.16 µM, first compound 0.0316 µM
  viability, T/C: 101%
Second compound 3.16 µM, first compound 0.1 µM
  viability, T/C: 99.5%
Second compound 3.16 µM, first compound 0.316 µM
  viability, T/C: 96.7%
Second compound 3.16 µM, first compound 1 µM
  viability, T/C: 103%
Second compound 3.16 µM, first compound 3.16 µM
  viability, T/C: 96.1%
Second compound 3.16 µM, first compound 10 µM
  viability, T/C: 108%
Second compound 10 µM, first compound 0.0316 µM
  viability, T/C: 105%
Second compound 10 µM, first compound 0.1 µM
  viability, T/C: 100%
Second compound 10 µM, first compound 0.316 µM
  viability, T/C: 90.8%
Second compound 10 µM, first compound 1 µM
  viability, T/C: 99.3%
Second compound 10 µM, first compound 3.16 µM
  viability, T/C: 95.9%
Second compound 10 µM, first compound 10 µM
  viability, T/C: 84.1%

## CC(Nc1ncnc2nc[nH]c12)c1cc2cccc(Cl)c2c(=O)n1-c1ccccc1 (stereo unspecified)
Compound 0.0316 µM
  viability, T/C: 103% [middle of 8 runs]
Compound 0.1 µM
  viability, T/C: 96.5% [middle of 8 runs]
Compound 0.316 µM
  viability, T/C: 99.3% [middle of 8 runs]
Compound 1 µM
  viability, T/C: 105% [middle of 8 runs]
Compound 3.16 µM
  viability, T/C: 102% [middle of 8 runs]
Compound 10 µM
  viability, T/C: 105% [middle of 8 runs]
Compound alone, run of 05/09/2023
  IC50: > 10 µM

## CC(Cn1ccc(-c2ccc(C#N)c(Cl)c2)n1)NC(=O)c1cc(C(C)O)[nH]n1 (stereo unspecified) + CC(Nc1ccc2c(c1)OCCn1cc(N3C(=O)OCC3C(F)F)nc1-2)C(N)=O
Curve of first compound, second compound 0.00316 µM
  IC50: > 10 µM
Curve of first compound, second compound 0.01 µM
  IC50: > 10 µM
[1]
  IC50: > 10 µM
[2]
  IC50: > 10 µM
[3]
  IC50: > 10 µM
[4]
  IC50: > 10 µM
Second compound 0.00316 µM, first compound 0.0316 µM
  viability, T/C: 90.8%
Second compound 0.00316 µM, first compound 0.1 µM
  viability, T/C: 94%
Second compound 0.00316 µM, first compound 0.316 µM
  viability, T/C: 91.2%
Second compound 0.00316 µM, first compound 1 µM
  viability, T/C: 93.6%
Second compound 0.00316 µM, first compound 3.16 µM
  viability, T/C: 92.4%
Second compound 0.00316 µM, first compound 10 µM
  viability, T/C: 94.3%
Second compound 0.01 µM, first compound 0.0316 µM
  viability, T/C: 89.3%
Second compound 0.01 µM, first compound 0.1 µM
  viability, T/C: 105%
Second compound 0.01 µM, first compound 0.316 µM
  viability, T/C: 102%
Second compound 0.01 µM, first compound 1 µM
  viability, T/C: 92.4%
Second compound 0.01 µM, first compound 3.16 µM
  viability, T/C: 92.3%
Second compound 0.01 µM, first compound 10 µM
  viability, T/C: 104%
[5]
  viability, T/C: 94.4%
[6]
  viability, T/C: 105%
[7]
  viability, T/C: 90.1%
[8]
  viability, T/C: 101%
[9]
  viability, T/C: 96.3%
[10]
  viability, T/C: 101%
[11]
  viability, T/C: 107%
[12]
  viability, T/C: 88%
[13]
  viability, T/C: 96.8%
[14]
  viability, T/C: 102%
[15]
  viability, T/C: 105%
[16]
  viability, T/C: 94.4%
[17]
  viability, T/C: 109%
[18]
  viability, T/C: 104%
[19]
  viability, T/C: 107%
[20]
  viability, T/C: 101%
[21]
  viability, T/C: 101%
[22]
  viability, T/C: 110%
[23]
  viability, T/C: 101%
[24]
  viability, T/C: 99.8%
[25]
  viability, T/C: 104%
[26]
  viability, T/C: 103%
[27]
  viability, T/C: 99.4%
[28]
  viability, T/C: 97.8%
